Assay results published in patent US11946059B2, “In vivo generation of water-soluble cannabinoids in plant cell suspension cultures” (Trait Biosciences Inc., priority 2017, dated 2024).

Assay: Cannabinoid stability in solution (time course incubation)
Format: physicochemical
Settings: for Day 1 concentration in solution / Day 4 concentration in solution / Day 5 concentration in solution / Day 6 concentration in solution / Day 7 concentration in solution / Day 0 concentration in solution: room temperature, shielded from light
Method: Rather, levels increased slightly in all treatments. The absence of any residual UGTs were cross-check and confirmed as the samples were purified by SPE, washed and eluted in 30% and 65%-100% ethanol, respectively.
Materials and Methods Example 19: Cannabinoid Stability in Solution.
The present inventors generated a stock solution of the CBD/CBDA+glycosides mixture in water which was further diluted 10× in all treatment solutions. A 10 mL starting volume was used for all treatments, and all treatments were prepared in triplicate. […] Each sample was incubated at room temperature. Samples were stored in 15 mL polypropylene centrifuge tubes. All samples were shielded from light—tubes were wrapped in aluminum foil. Each sample was prepared in triplicate in the following buffers: water only; pH=3; pH=4; pH=7; pH=8; water only+10 mM ascorbic acid; pH=3+10 mM ascorbic acid; pH=4+10 mM ascorbic acid; pH=7+10 mM ascorbic acid; and pH=8+10 mM ascorbic acid.

[1] = Water + AA (10 mM ascorbic acid)
[2] = pH = 3 + AA (10 mM ascorbic acid)
[3] = pH = 4 + AA (10 mM ascorbic acid)
[4] = pH = 7 + AA (10 mM ascorbic acid)
[5] = pH = 8 + AA (10 mM ascorbic acid)

For `C=C(C)C1CCC(C)=CC1c1c(O)cc(CCCCC)cc1OC1OC(CO)C(O)C(O)C1O` (stereo not drawn) [1X CBD Gly], the “Day 1 concentration in solution” value [1] was 7.99 ± 4.17 µg/mL, the “Day 1 concentration in solution” value (Water) was 1.20 ± 21.68 µg/mL and the “Day 1 concentration in solution” value [2] was 9.78 ± 5.27 µg/mL. The “Day 1 concentration in solution” value (pH = 3) was 8.83 ± 1.80 µg/mL, the “Day 1 concentration in solution” value [3] was 5.82 ± 3.11 µg/mL and the “Day 1 concentration in solution” value (pH = 4) was “below LOQ”. For the same molecule, the “Day 1 concentration in solution” value [4] was 5.73 ± 4.70 µg/mL, the “Day 1 concentration in solution” value (pH = 7) was 15.45 ± 0.07 µg/mL and the “Day 1 concentration in solution” value [5] was 1.04 ± 4.15 µg/mL. For the same molecule, the “Day 1 concentration in solution” value (pH = 8) was 12.86 ± 4.15 µg/mL, the “Day 4 concentration in solution” value [1] was 17.55 ± 5.99 µg/mL and the “Day 4 concentration in solution” value (Water) was 15.11 ± 10.77 µg/mL. The “Day 4 concentration in solution” value [2] was 17.99 ± 4.60 µg/mL, the “Day 4 concentration in solution” value (pH = 3) was 18.94 ± 4.88 µg/mL and the “Day 4 concentration in solution” value [3] was 17.02 ± 5.68 µg/mL. For the same molecule, the “Day 4 concentration in solution” value (pH = 4) was 29.03 ± 8.17 µg/mL, the “Day 4 concentration in solution” value [4] was 19.96 ± 9.83 µg/mL and the “Day 4 concentration in solution” value (pH = 7) was 19.64 ± 3.44 µg/mL. The “Day 4 concentration in solution” value [5] was 15.86 ± 2.63 µg/mL, the “Day 4 concentration in solution” value (pH = 8) was 26.99 ± 15.29 µg/mL and the “Day 5 concentration in solution” value [1] was 19.70 ± 0.80 µg/mL. For the same molecule, the “Day 5 concentration in solution” value (Water) was 14.60 ± 1.31 µg/mL, the “Day 5 concentration in solution” value [2] was 19.29 ± 3.26 µg/mL and the “Day 5 concentration in solution” value (pH = 3) was 18.00 ± 0.59 µg/mL. For the same molecule, the “Day 5 concentration in solution” value [3] was 19.34 ± 1.90 µg/mL, the “Day 5 concentration in solution” value (pH = 4) was 18.26 ± 0.52 µg/mL and the “Day 5 concentration in solution” value [4] was 19.05 ± 3.91 µg/mL. For the same molecule, the “Day 5 concentration in solution” value (pH = 7) was 17.50 ± 1.63 µg/mL, the “Day 5 concentration in solution” value [5] was 20.14 ± 1.73 µg/mL and the “Day 5 concentration in solution” value (pH = 8) was 19.73 ± 0.55 µg/mL. The “Day 6 concentration in solution” value [1] was 34.98 ± 9.28 µg/mL, the “Day 6 concentration in solution” value (Water) was 8.56 ± 7.04 µg/mL and the “Day 6 concentration in solution” value [2] was 27.67 ± 9.51 µg/mL. The “Day 6 concentration in solution” value (pH = 3) was 21.59 ± 7.97 µg/mL, the “Day 6 concentration in solution” value [3] was 31.67 ± 4.29 µg/mL and the “Day 6 concentration in solution” value (pH = 4) was 32.87 ± 8.08 µg/mL. For the same molecule, the “Day 6 concentration in solution” value [4] was 30.43 ± 4.82 µg/mL, the “Day 6 concentration in solution” value (pH = 7) was 46.80 ± 10.12 µg/mL and the “Day 6 concentration in solution” value [5] was 32.97 ± 1.31 µg/mL. For the same molecule, the “Day 6 concentration in solution” value (pH = 8) was 44.10 ± 3.45 µg/mL, the “Day 7 concentration in solution” value [1] was 24.99 ± 7.29 µg/mL and the “Day 7 concentration in solution” value (Water) was 23.89 ± 5.27 µg/mL. The “Day 7 concentration in solution” value [2] was 19.38 ± 0.46 µg/mL, the “Day 7 concentration in solution” value (pH = 3) was 27.06 ± 4.05 µg/mL and the “Day 7 concentration in solution” value [3] was 23.30 ± 3.95 µg/mL. For the same molecule, the “Day 7 concentration in solution” value (pH = 4) was 26.96 ± 0.46 µg/mL, the “Day 7 concentration in solution” value [4] was 39.57 ± 4.63 µg/mL and the “Day 7 concentration in solution” value (pH = 7) was 22.14 ± 6.83 µg/mL. The “Day 7 concentration in solution” value [5] was 37.93 ± 2.89 µg/mL and the “Day 7 concentration in solution” value (pH = 8) was 32.42 ± 8.76 µg/mL.
In the case of `C=C(C)C1CCC(C)=CC1c1c(O)cc(CCCCC)cc1OC1OC(COC(C)=O)C(O)C(O)C1O` (stereo not drawn) [1X CBD O-Acetyl Gly], the “Day 0 concentration in solution” value [1] is reported as 102.24 ± 12.18 µg/mL, the “Day 0 concentration in solution” value (Water) is reported as 137.46 ± 35.49 µg/mL and the “Day 0 concentration in solution” value [2] is reported as 110.44 ± 13.31 µg/mL. The “Day 0 concentration in solution” value (pH = 3) was 126.49 ± 43.90 µg/mL, the “Day 0 concentration in solution” value [3] was 118.27 ± 1.16 µg/mL and the “Day 0 concentration in solution” value (pH = 4) was 101.60 ± 31.49 µg/mL. For the same molecule, the “Day 0 concentration in solution” value [4] was 108.19 ± 19.12 µg/mL, the “Day 0 concentration in solution” value (pH = 7) was 107.55 ± 20.03 µg/mL and the “Day 0 concentration in solution” value [5] was 137.53 ± 6.71 µg/mL. The “Day 0 concentration in solution” value (pH = 8) was 108.41 ± 12.42 µg/mL, the “Day 1 concentration in solution” value [1] was 204.63 ± 24.09 µg/mL and the “Day 1 concentration in solution” value (Water) was 136.86 ± 139.68 µg/mL. The “Day 1 concentration in solution” value [2] was 223.32 ± 48.67 µg/mL, the “Day 1 concentration in solution” value (pH = 3) was 216.46 ± 9.61 µg/mL and the “Day 1 concentration in solution” value [3] was 198.56 ± 24.37 µg/mL. For the same molecule, the “Day 1 concentration in solution” value (pH = 4) was 150.94 ± 27.25 µg/mL, the “Day 1 concentration in solution” value [4] was 185.02 ± 35.46 µg/mL and the “Day 1 concentration in solution” value (pH = 7) was 250.75 ± 6.23 µg/mL. The “Day 1 concentration in solution” value [5] was 180.83 ± 33.60 µg/mL, the “Day 1 concentration in solution” value (pH = 8) was 221.10 ± 16.30 µg/mL and the “Day 4 concentration in solution” value [1] was 153.06 ± 28.19 µg/mL. The “Day 4 concentration in solution” value (Water) was 160.23 ± 23.75 µg/mL, the “Day 4 concentration in solution” value [2] was 157.19 ± 1.58 µg/mL and the “Day 4 concentration in solution” value (pH = 3) was 174.88 ± 14.16 µg/mL. The “Day 4 concentration in solution” value [3] was 144.44 ± 18.85 µg/mL, the “Day 4 concentration in solution” value (pH = 4) was 225.84 ± 39.59 µg/mL and the “Day 4 concentration in solution” value [4] was 176.48 ± 33.58 µg/mL. The “Day 4 concentration in solution” value (pH = 7) was 190.05 ± 24.38 µg/mL, the “Day 4 concentration in solution” value [5] was 152.03 ± 5.79 µg/mL and the “Day 4 concentration in solution” value (pH = 8) was 174.09 ± 59.87 µg/mL. The “Day 5 concentration in solution” value [1] was 146.60 ± 10.68 µg/mL, the “Day 5 concentration in solution” value (Water) was 131.77 ± 33.91 µg/mL and the “Day 5 concentration in solution” value [2] was 97.81 ± 29.67 µg/mL. The “Day 5 concentration in solution” value (pH = 3) was 83.72 ± 35.56 µg/mL, the “Day 5 concentration in solution” value [3] was 113.89 ± 31.15 µg/mL and the “Day 5 concentration in solution” value (pH = 4) was 164.84 ± 35.61 µg/mL. The “Day 5 concentration in solution” value [4] was 110.66 ± 48.12 µg/mL, the “Day 5 concentration in solution” value (pH = 7) was 186.93 ± 5.65 µg/mL and the “Day 5 concentration in solution” value [5] was 92.06 ± 15.47 µg/mL. For the same molecule, the “Day 5 concentration in solution” value (pH = 8) was 162.75 ± 31.35 µg/mL, the “Day 6 concentration in solution” value [1] was 200.20 ± 37.42 µg/mL and the “Day 6 concentration in solution” value (Water) was 148.36 ± 33.57 µg/mL. For the same molecule, the “Day 6 concentration in solution” value [2] was 190.69 ± 36.71 µg/mL, the “Day 6 concentration in solution” value (pH = 3) was 175.06 ± 31.37 µg/mL and the “Day 6 concentration in solution” value [3] was 215.72 ± 16.69 µg/mL. The “Day 6 concentration in solution” value (pH = 4) was 231.03 ± 36.34 µg/mL, the “Day 6 concentration in solution” value [4] was 205.61 ± 26.64 µg/mL and the “Day 6 concentration in solution” value (pH = 7) was 267.45 ± 30.83 µg/mL. The “Day 6 concentration in solution” value [5] was 217.66 ± 11.23 µg/mL, the “Day 6 concentration in solution” value (pH = 8) was 218.64 ± 22.05 µg/mL and the “Day 7 concentration in solution” value [1] was 167.42 ± 22.79 µg/mL. For the same molecule, the “Day 7 concentration in solution” value (Water) was 185.62 ± 22.87 µg/mL, the “Day 7 concentration in solution” value [2] was 147.21 ± 8.07 µg/mL and the “Day 7 concentration in solution” value (pH = 3) was 195.77 ± 15.07 µg/mL. The “Day 7 concentration in solution” value [3] was 166.23 ± 17.10 µg/mL, the “Day 7 concentration in solution” value (pH = 4) was 201.23 ± 6.99 µg/mL and the “Day 7 concentration in solution” value [4] was 157.89 ± 17.21 µg/mL. For the same molecule, the “Day 7 concentration in solution” value (pH = 7) was 187.10 ± 28.07 µg/mL, the “Day 7 concentration in solution” value [5] was 181.7 ± 29.53 µg/mL and the “Day 7 concentration in solution” value (pH = 8) was 193.61 ± 21.84 µg/mL. For the same molecule, the “change of level in solution over the incubation” value (all treatments, after day 7, room temperature) was “not found to decrease in any sample after day 7”.
